# PubChem BioAssay AID1745844 (Carcinogenic Potency Database (CPDB), 2022)
# “And” between values parts separate entries of the source, which are not always exact repeats. Equal entries are not always repeated. The source made the active and inactive calls. The rule behind the calls is not given here.
# System: rodent lifetime carcinogenesis bioassay, tumor incidence TD50
# Assay: chronic cancer bioassays in animals – CPDB, compiled studies (AID 1745844)
structure (smiles),measurement,setting,value
O=CNNC=O,TD50,"mouse, strain Swiss albino, females, in drinking water, site: liver, lesion: hepatoma, dosed 83 weeks, study length 83 weeks",7820 mg/kg/day (inactive)
same,TD50,"mouse, strain Swiss albino, females, in drinking water, site: liver, lesion: several types, types named in the paper, dosed 83 weeks, study length 83 weeks",89200 mg/kg/day
same,TD50,"mouse, strain Swiss albino, females, in drinking water, site: lung, lesion: adenocarcinoma, dosed 83 weeks, study length 83 weeks",2170 mg/kg/day
same,TD50,"mouse, strain Swiss albino, females, in drinking water, site: lung, lesion: adenoma, dosed 83 weeks, study length 83 weeks",561 mg/kg/day
same,TD50,"mouse, strain Swiss albino, females, in drinking water, site: lung, lesion: several types, types named in the paper, dosed 83 weeks, study length 83 weeks",571 mg/kg/day
same,TD50,"mouse, strain Swiss albino, males, in drinking water, site: liver, lesion: hepatoma, dosed 83 weeks, study length 83 weeks",11300 mg/kg/day (inactive)
same,TD50,"mouse, strain Swiss albino, males, in drinking water, site: liver, lesion: several types, types named in the paper, dosed 83 weeks, study length 83 weeks",8140 mg/kg/day
same,TD50,"mouse, strain Swiss albino, males, in drinking water, site: lung, lesion: adenocarcinoma, dosed 83 weeks, study length 83 weeks",4530 mg/kg/day
same,TD50,"mouse, strain Swiss albino, males, in drinking water, site: lung, lesion: adenoma, dosed 83 weeks, study length 83 weeks",779 mg/kg/day
same,TD50,"mouse, strain Swiss albino, males, in drinking water, site: lung, lesion: several types, types named in the paper, dosed 83 weeks, study length 83 weeks",806 mg/kg/day
O=[N+]([O-])c1cccc2ccccc12,carcinogen call,"mouse, strain B6C3F1, females, in feed, site: any site (literature study), lesion: several types, types named in the paper, dosed 78 weeks, study length 96 weeks",negative (inactive)
same,TD50,"mouse, strain B6C3F1, females, in feed, site: lung, lesion: alveolar/bronchiolar adenoma + alveolar/bronchiolar carcinoma, dosed 78 weeks, study length 96 weeks",682 mg/kg/day
same,carcinogen call,"mouse, strain B6C3F1, males, in feed, site: any site (literature study), lesion: several types, types named in the paper, dosed 78 weeks, study length 96 weeks",negative (inactive)
same,carcinogen call,"rat, strain Fischer 344, females, in feed, site: any site (literature study), lesion: several types, types named in the paper, dosed 78 weeks, study length 107 weeks",negative (inactive)
same,carcinogen call,"rat, strain Fischer 344, males, in feed, site: any site (literature study), lesion: several types, types named in the paper, dosed 78 weeks, study length 107 weeks",negative (inactive)
same,TD50,"rat, strain Fischer 344, males, in feed, site: liver, lesion: hepatocellular adenoma + hepatocellular carcinoma + neoplastic nodule, dosed 78 weeks, study length 107 weeks",509 mg/kg/day
C=Cc1cccc[n+]1[O-],TD50,"mouse, strain ICI, females, i.v., site: any site (literature study), lesion: benign tumor, dosed 75 weeks, study length 104 weeks",1690 mg/kg/day (inactive)
same,carcinogen call,"mouse, strain ICI, females, i.v., site: any site (literature study), lesion: malignant tumor, dosed 75 weeks, study length 104 weeks",negative (inactive)
same,carcinogen call,"mouse, strain ICI, females, i.v., site: lung, lesion: adenoma, dosed 75 weeks, study length 104 weeks",negative (inactive)
same,carcinogen call,"rat, strain Wistar, females, i.v., site: any site (literature study), lesion: benign tumor, dosed 75 weeks, study length 104 weeks",negative (inactive)
same,TD50,"rat, strain Wistar, females, i.v., site: any site (literature study), lesion: malignant tumor, dosed 75 weeks, study length 104 weeks",175 mg/kg/day (inactive)
O=[N+]([O-])c1ccc2ncccc2c1,carcinogen call,"rat, strain Fischer 344, females, in feed, site: liver, lesion: hyperplastic nodule, dosed 104 weeks, study length 104 weeks",negative (inactive)
same,TD50,"rat, strain Fischer 344, males, in feed, site: liver, lesion: hyperplastic nodule, dosed 104 weeks, study length 104 weeks",267 mg/kg/day (inactive)
O=C(Nc1cccc2c(=O)cc(-c3nn[nH]n3)oc12)c1ccc(OCCCCc2ccccc2)cc1,carcinogen call,"rat, strain Jcl:SD, females, by gavage, site: liver, lesion: one or several types, types not named, dosed 52 weeks, study length 52 weeks",negative (inactive)
same,carcinogen call,"rat, strain Jcl:SD, females, by gavage, site: liver, lesion: one or several types, types not named, dosed 52 weeks, study length 56 weeks",negative (inactive)
same,carcinogen call,"rat, strain Jcl:SD, males, by gavage, site: liver, lesion: neoplastic nodule, dosed 52 weeks, study length 56 weeks",negative (inactive)
same,carcinogen call,"rat, strain Jcl:SD, males, by gavage, site: liver, lesion: one or several types, types not named, dosed 52 weeks, study length 52 weeks",negative (inactive)
C=CCN(CCO)N=O,TD50,"rat, strain Fischer 344, females, in drinking water, site: liver, lesion: hepatocellular carcinoma, dosed 50 weeks, study length 65 weeks",4.12 mg/kg/day
same,TD50,"rat, strain Fischer 344, females, in drinking water, site: nasal cavity, lesion: several types, types named in the paper, dosed 50 weeks, study length 65 weeks",0.491 mg/kg/day
O=C(O)c1cccnc1,carcinogen call,"mouse, strain Swiss albino, females, in drinking water, site: liver, lesion: several types, types named in the paper, dosed 139 weeks, study length 139 weeks",negative (inactive)
same,TD50,"mouse, strain Swiss albino, females, in drinking water, site: lung, lesion: one or several types, types not named, dosed 139 weeks, study length 139 weeks",17000 mg/kg/day (inactive)
same,carcinogen call,"mouse, strain Swiss albino, males, in drinking water, site: liver, lesion: several types, types named in the paper, dosed 119 weeks, study length 119 weeks",negative (inactive)
same,carcinogen call,"mouse, strain Swiss albino, males, in drinking water, site: lung, lesion: one or several types, types not named, dosed 119 weeks, study length 119 weeks",negative (inactive)
CC(C)CCC[C@@H](C)[C@H]1CC[C@H]2[C@@H]3CC=C4C[C@@H](OC(=O)Cc5ccc(N(CCCl)CCCl)cc5)CC[C@]4(C)[C@H]3CC[C@]12C,TD50,"mouse, strain B6C3F1, females, by gavage, site: all sites + lung + myocardium, lesion: leukemia + lymphoma + alveolar/bronchiolar adenoma + alveolar/bronchiolar carcinoma + sarcoma, NOS, dosed 70 weeks, study length 83 weeks",0.211 mg/kg/day
same,TD50,"mouse, strain B6C3F1, females, by gavage, site: all sites, lesion: hemangiosarcoma, dosed 70 weeks, study length 83 weeks",1.52 mg/kg/day
same,TD50,"mouse, strain B6C3F1, females, by gavage, site: all sites, lesion: leukemia + lymphoma, dosed 70 weeks, study length 82 weeks",2.07 mg/kg/day
same,TD50,"mouse, strain B6C3F1, females, by gavage, site: all sites, lesion: leukemia + lymphoma, dosed 70 weeks, study length 83 weeks",0.652 mg/kg/day
same,TD50,"mouse, strain B6C3F1, females, by gavage, site: any site (literature study), lesion: several types, types named in the paper, dosed 70 weeks, study length 83 weeks",0.183 mg/kg/day
same,TD50,"mouse, strain B6C3F1, females, by gavage, site: lung, lesion: alveolar/bronchiolar adenoma + alveolar/bronchiolar carcinoma, dosed 70 weeks, study length 83 weeks",0.416 mg/kg/day
same,TD50,"mouse, strain B6C3F1, females, by gavage, site: myocardium, lesion: sarcoma, NOS, dosed 70 weeks, study length 83 weeks",0.951 mg/kg/day
same,TD50,"mouse, strain B6C3F1, females, by gavage, site: ovary, lesion: tubular adenoma, dosed 70 weeks, study length 83 weeks",0.912 mg/kg/day
same,TD50,"mouse, strain B6C3F1, males, by gavage, site: all sites + lung + myocardium, lesion: leukemia + lymphoma + alveolar/bronchiolar adenoma + alveolar/bronchiolar carcinoma + sarcoma, NOS, dosed 64 weeks, study length 81 weeks",0.757 mg/kg/day
same,TD50,"mouse, strain B6C3F1, males, by gavage, site: all sites, lesion: hemangiosarcoma, dosed 64 weeks, study length 81 weeks",6.15 mg/kg/day
same,TD50,"mouse, strain B6C3F1, males, by gavage, site: all sites, lesion: leukemia + lymphoma, dosed 64 weeks, study length 81 weeks",2.13 mg/kg/day and 1.89 mg/kg/day
same,TD50,"mouse, strain B6C3F1, males, by gavage, site: any site (literature study), lesion: several types, types named in the paper, dosed 64 weeks, study length 81 weeks",0.728 mg/kg/day
same,TD50,"mouse, strain B6C3F1, males, by gavage, site: liver, lesion: hepatocellular adenoma + hepatocellular carcinoma + neoplastic nodule, dosed 64 weeks, study length 81 weeks",32.9 mg/kg/day
same,TD50,"mouse, strain B6C3F1, males, by gavage, site: lung, lesion: alveolar/bronchiolar adenoma + alveolar/bronchiolar carcinoma, dosed 64 weeks, study length 81 weeks",1.19 mg/kg/day
same,TD50,"mouse, strain B6C3F1, males, by gavage, site: lung, lesion: alveolar/bronchiolar carcinoma, dosed 64 weeks, study length 81 weeks",2.05 mg/kg/day
same,TD50,"mouse, strain B6C3F1, males, by gavage, site: myocardium, lesion: sarcoma, NOS, dosed 64 weeks, study length 81 weeks",3.87 mg/kg/day and 6.28 mg/kg/day
same,TD50,"rat, strain Sprague-Dawley, females, by gavage, site: any site (literature study), lesion: several types, types named in the paper, dosed 52 weeks, study length 85 weeks",0.271 mg/kg/day
same,TD50,"rat, strain Sprague-Dawley, females, by gavage, site: mammary gland, lesion: adenocarcinoma, NOS, dosed 52 weeks, study length 85 weeks",0.523 mg/kg/day
same,TD50,"rat, strain Sprague-Dawley, males, by gavage, site: all sites, lesion: leukemia + lymphoma, dosed 52 weeks, study length 84 weeks",2.73 mg/kg/day (inactive)
same,TD50,"rat, strain Sprague-Dawley, males, by gavage, site: any site (literature study), lesion: several types, types named in the paper, dosed 52 weeks, study length 84 weeks",0.481 mg/kg/day (inactive)
CC[C@H](C)C(=O)O[C@H]1C[C@@H](C)C=C2C=C[C@H](C)[C@H](CC[C@@H]3C[C@@H](O)CC(=O)O3)[C@H]21,TD50,"mouse, strain Charles River CD1, females, by gavage, site: forestomach, lesion: squamous-cell carcinoma, dosed 92 weeks, study length 92 weeks",38400 mg/kg/day
same,TD50,"mouse, strain Charles River CD1, females, by gavage, site: forestomach, lesion: squamous-cell papilloma, dosed 92 weeks, study length 92 weeks",1020 mg/kg/day
same,TD50,"mouse, strain Charles River CD1, females, by gavage, site: liver, lesion: hepatocellular carcinoma, dosed 92 weeks, study length 92 weeks",2240 mg/kg/day
same,TD50,"mouse, strain Charles River CD1, females, by gavage, site: liver, lesion: several types, types named in the paper, dosed 92 weeks, study length 92 weeks",623 mg/kg/day
same,TD50,"mouse, strain Charles River CD1, females, by gavage, site: lung, lesion: adenocarcinoma, dosed 92 weeks, study length 92 weeks",57400 mg/kg/day
same,TD50,"mouse, strain Charles River CD1, females, by gavage, site: lung, lesion: alveolar-cell adenoma, dosed 92 weeks, study length 92 weeks",1220 mg/kg/day
same,TD50,"mouse, strain Charles River CD1, males, by gavage, site: forestomach, lesion: squamous-cell papilloma, dosed 92 weeks, study length 92 weeks",8550 mg/kg/day
same,TD50,"mouse, strain Charles River CD1, males, by gavage, site: liver, lesion: hepatocellular carcinoma, dosed 92 weeks, study length 92 weeks",708 mg/kg/day
same,TD50,"mouse, strain Charles River CD1, males, by gavage, site: liver, lesion: several types, types named in the paper, dosed 92 weeks, study length 92 weeks",439 mg/kg/day
same,TD50,"rat, strain Charles River CD (Sprague-Dawley), females, by gavage, site: liver, lesion: hepatocellular adenoma, dosed 105 weeks, study length 105 weeks",19900 mg/kg/day (inactive)
same,carcinogen call,"rat, strain Charles River CD (Sprague-Dawley), males, by gavage, site: liver, lesion: hepatocellular adenoma, dosed 105 weeks, study length 105 weeks",negative (inactive)
same,TD50,"rat, strain Charles River CD (Sprague-Dawley), males, by gavage, site: liver, lesion: hepatocellular carcinoma, dosed 105 weeks, study length 105 weeks",2330 mg/kg/day (inactive)
CC(=O)Nc1ccc2c(c1)C(=O)c1ccccc1-2,TD50,"rat, strain Buffalo, females, in feed, site: ear duct, lesion: squamous-cell carcinoma, dosed 86 weeks, study length 86 weeks",32 mg/kg/day
same,TD50,"rat, strain Buffalo, females, in feed, site: liver, lesion: hepatoma, dosed 86 weeks, study length 86 weeks",102 mg/kg/day
same,TD50,"rat, strain Buffalo, females, in feed, site: mammary gland, lesion: adenocarcinoma, dosed 86 weeks, study length 86 weeks",6.17 mg/kg/day
CCC(CC)[N+](=O)[O-],TD50,"rat, strain Fischer 344, males, by gavage, site: liver, lesion: hepatocellular carcinoma, dosed 50 weeks, study length 83 weeks",3.05 mg/kg/day
same,TD50,"rat, strain Fischer 344, males, by gavage, site: liver, lesion: several types, types named in the paper, dosed 50 weeks, study length 83 weeks",2.37 mg/kg/day
CN(N=O)c1ccc(N=O)cc1,TD50,"rat, strain CB, males, i.p., site: liver, lesion: hepatoma, dosed 26 weeks, study length 86 weeks",1.5 mg/kg/day (inactive)
same,TD50,"rat, strain CB, males, i.p., site: peritoneal cavity, lesion: several types, types named in the paper, dosed 26 weeks, study length 86 weeks",1.3 mg/kg/day
